Measurements reported in publication PMC12211128, “Safety, tolerability, pharmacokinetic and pharmacodynamic effects of the muscarinic M1 positive allosteric modulator VU0467319 for Alzheimer’s disease: a single ascending-dose study in healthy participants” (Alzheimer's Research & Therapy, 2025).
Marks after values point to notes of the source that are not given here.

Tested on: healthy participants
Test: Incidental visual memory ERP paradigm
Assay type: in vivo, human
Details: for Mean amplitude over the parietal cortex, Incidental Memory task, Novel trials / Mean amplitude over the parietal cortex, Incidental Memory task, Repeat trials: mean (SD)
Procedure: Following the cognitive battery, an electrophysiology recording was set up. Visual and auditory ERPs were recorded using a 128-channel Geodesic sensor net (EGI, Inc., Eugene, OR; [37, 38]). The electrophysiological recording was sampled at 250 Hz with filters set at 0.1–100 Hz. During data collection, all electrodes were referenced to vertex (Cz). The recording session lasted approximately 30 min.
(§1) A passive incidental visual memory paradigm (120 trials, 8 min; [38]) was used to evaluate changes in basic memory processes. Participants were asked to view a slide show of novel color photographs depicting complex natural scenes (different sets of images were used at pre-dose vs. post-dose administration test sessions). A small subset (n = 10) of the stimuli was presented repeatedly (× 5 each) throughout the session; the rest (n = 50) were shown once. To encourage attention to the stimulus sequence, 20 attention probes (a yellow smiley face) were presented throughout the test session and required a button press response. The task duration was approximately 7 min.
ERP processing and Analysis: Single-trial ERPs were derived by extracting a 100-ms pre-stimulus baseline and a 900 ms post-stimulus interval. The trials were screened for ocular and motor artifacts using automated procedures with standard threshold settings (NetStation 4.4, EGI, Inc) and verified using manual review. Data for electrodes characterized by consistent artifacts were replaced using the spherical spline interpolation algorithm. If more than 15 electrodes within a trial were noisy, the entire trial was discarded. Remaining artifact-free trials were averaged separately for each condition (standard vs. oddball; novel vs. repeated images), re-referenced to an average reference, and baseline corrected. For individual participant’s data to be included in the analysis, each condition average had to have a minimum of 10 artifact-free trials.
Statistical analysis focused on a priori selected electrode clusters corresponding to frontal, central, and parietal midline locations (Fz, Cz, Pz in 10–20 notation), confirmed using spatial principal components analysis. Mean amplitudes were calculated within 250–400 ms (frontal P3a), 300–500 ms (parietal P300), and 500–800 ms (parietal P600) temporal windows. These a-priori selected windows were confirmed using temporal principal components analysis.
Analyses for the auditory and visual oddball ERPs focused on the parietal (P300) and frontal (P3a) responses to standard and target stimuli. Differences in the amplitude, latency, and scalp topography of the responses were examined. […] For the incidental memory paradigm, differences in the mean amplitude of the parietal P300/P600 responses to repeated vs. novel presentations. The amplitude of the parietal P300/P600 waveform measures stimulus recognition. A larger positive amplitude for repeated compared to novel images indicates spontaneous formation of a memory trace.
as §1, with “(Key & Dykens, 2014))” for “[38])”, “once. All stimuli were presented in random order for 1500 ms with a random interstimulus interval of 1300-1600 ms.” for “once.”, “minutes.” for “min.”

[1] = SAD study, 120mg, Pre-Drug, n = 5
[2] = VU319 120 mg, fasting, post-drug session
[3] = VU319 120 mg, fasting, pre-drug session
[4] = VU319 120 mg, fed, post-drug session
[5] = VU319 120 mg, fed, pre-drug session

Cn1cc2c(-c3cc(F)c(CN4Cc5ncccc5C4=O)c(F)c3)cccc2n1 [VU319]
Incidental memory, novel vs repeated images (120 mg, fasted condition, either session, both p > 0.2): did not show a difference
Incidental memory parietal P300/P600 amplitude, repeated vs novel, effect size d (120 mg, fed condition, p = 0.018): 0.91
Incidental memory parietal P300/P600 amplitude, repeated vs novel, effect size d (400 mg, p = 0.098): 0.83
Incidental memory parietal P300/P600 amplitude, repeated vs novel, effect size d (600 mg, p = 0.09): 0.86
Incidental memory P300/P600 amplitude, repeated vs novel, higher two doses compared to placebo, effect size d (400 and 600 mg): > 0.8
Mean amplitude over the parietal cortex, Incidental Memory task, Novel trials (SAD study, 60 mg, Post-Drug): 0.87 (1.92) µV
Mean amplitude over the parietal cortex, Incidental Memory task, Repeat trials (SAD study, 60 mg, Post-Drug): 1.25 (1.02) µV
Mean amplitude over the parietal cortex, Incidental Memory task, Novel trials (SAD study, 60 mg, Pre-Drug): 0.49 (2.16) µV
Mean amplitude over the parietal cortex, Incidental Memory task, Repeat trials (SAD study, 60 mg, Pre-Drug): 0.77 (1.85) µV
Mean amplitude over the parietal cortex, Incidental Memory task, Novel trials (SAD study, 120 mg, Post-Drug): 1.67 (2.01) µV
Mean amplitude over the parietal cortex, Incidental Memory task, Repeat trials (SAD study, 120 mg, Post-Drug): 2.16 (1.69) µV
Mean amplitude over the parietal cortex, Incidental Memory task, Novel trials [1]: 2.3 (1.78)^# µV
Mean amplitude over the parietal cortex, Incidental Memory task, Repeat trials [1]: 2.66 (2.5)^# µV
Mean amplitude over the parietal cortex, Incidental Memory task, Novel trials (SAD study, 240 mg, Post-Drug): 1.76 (1.4) µV
Mean amplitude over the parietal cortex, Incidental Memory task, Repeat trials (SAD study, 240 mg, Post-Drug): 2.19 (1.37) µV
Mean amplitude over the parietal cortex, Incidental Memory task, Novel trials (SAD study, 240 mg, Pre-Drug): 1.22 (1.44) µV
Mean amplitude over the parietal cortex, Incidental Memory task, Repeat trials (SAD study, 240 mg, Pre-Drug): 2.14 (1.27) µV
Mean amplitude over the parietal cortex, Incidental Memory task, Novel trials (SAD study, 400 mg, Post-Drug): 2.45 (1.79) µV
Mean amplitude over the parietal cortex, Incidental Memory task, Repeat trials (SAD study, 400 mg, Post-Drug): 3.14 (2.3) µV
Mean amplitude over the parietal cortex, Incidental Memory task, Novel trials (SAD study, 400 mg, Pre-Drug): 2.35 (1.07) µV
Mean amplitude over the parietal cortex, Incidental Memory task, Repeat trials (SAD study, 400 mg, Pre-Drug): 1.91 (1.19) µV
Mean amplitude over the parietal cortex, Incidental Memory task, Novel trials (SAD study, 600 mg, Post-Drug): 1.98 (0.97) µV
Mean amplitude over the parietal cortex, Incidental Memory task, Repeat trials (SAD study, 600 mg, Post-Drug): 3.17 (1.37) µV
Mean amplitude over the parietal cortex, Incidental Memory task, Novel trials (SAD study, 600 mg, Pre-Drug): 2.47 (1.3) µV
Mean amplitude over the parietal cortex, Incidental Memory task, Repeat trials (SAD study, 600 mg, Pre-Drug): 2.74 (1.63) µV
Mean amplitude over the parietal cortex, Incidental Memory task, Novel trials [2]: 1.0 (1.39) µV
Mean amplitude over the parietal cortex, Incidental Memory task, Repeat trials [2]: 1.48 (1.3) µV
Mean amplitude over the parietal cortex, Incidental Memory task, Novel trials [3]: 1.34 (1.09) µV
Mean amplitude over the parietal cortex, Incidental Memory task, Repeat trials [3]: 1.46 (1.45) µV
Mean amplitude over the parietal cortex, Incidental Memory task, Novel trials [4]: 1.04 (1.81) µV
Mean amplitude over the parietal cortex, Incidental Memory task, Repeat trials [4]: 2.43 (1.59) µV
Mean amplitude over the parietal cortex, Incidental Memory task, Novel trials [5]: 1.0 (0.95) µV
Mean amplitude over the parietal cortex, Incidental Memory task, Repeat trials [5]: 0.88 (2.27) µV
